According to ChEMBL document CHEMBL1177794, “Broad spectrum alkynyl inhibitors of T315I Bcr-Abl” (Bioorg Med Chem Lett, 2010):

What was measured:
[1] = molecular target: Aurora kinase A (Homo sapiens) (UniProt O14965); test: Inhibition of AURKA at 10 uM; conditions: values are per cent of control
[2] = molecular target: Bone morphogenetic protein receptor type-1A (Homo sapiens) (UniProt P36894); test: Inhibition of BMPR1A at 10 uM; conditions: values are per cent of control
[3] = molecular target: Bone morphogenetic protein receptor type-1B (Homo sapiens) (UniProt O00238); test: Inhibition of BMPR1B at 10 uM; conditions: values are per cent of control
[4] = molecular target: Cytoplasmic tyrosine-protein kinase BMX (Homo sapiens) (UniProt P51813); test: Inhibition of BMX at 10 uM; conditions: values are per cent of control
[5] = molecular target: Serine/threonine-protein kinase B-raf (Homo sapiens) (UniProt P15056); test: Inhibition of BRAF at 10 uM; conditions: values are per cent of control
[6] = molecular target: Protein-tyrosine kinase 6 (Homo sapiens) (UniProt Q13882); test: Inhibition of BRK at 10 uM; conditions: values are per cent of control
[7] = molecular target: Calcium/calmodulin-dependent protein kinase type II subunit delta (Homo sapiens) (UniProt Q13557); test: Inhibition of CAMK2D at 10 uM; conditions: values are per cent of control
[8] = molecular target: Calcium/calmodulin-dependent protein kinase kinase 1 (Homo sapiens) (UniProt Q8N5S9); test: Inhibition of CAMKK1 at 10 uM; conditions: values are per cent of control
[9] = molecular target: Calcium/calmodulin-dependent protein kinase kinase 2 (Homo sapiens) (UniProt Q96RR4); test: Inhibition of CAMKK2 at 10 uM; conditions: values are per cent of control
[10] = molecular target: Dual specificity protein kinase CLK1 (Homo sapiens) (UniProt P49759); test: Inhibition of CLK1 at 10 uM; conditions: values are per cent of control
[11] = molecular target: Casein kinase II subunit alpha' (Homo sapiens) (UniProt P19784); test: Inhibition of CSNK2A2 at 10 uM; conditions: values are per cent of control
[12] = molecular target: Serine/threonine-protein kinase DCLK2 (Homo sapiens) (UniProt Q8N568); test: Inhibition of DCAMKL2 at 10 uM; conditions: values are per cent of control
[13] = molecular target: Dual specificity tyrosine-phosphorylation-regulated kinase 2 (Homo sapiens) (UniProt Q92630); test: Inhibition of DYRK2 at 10 uM; conditions: values are per cent of control
[14] = tested on: Receptor-type tyrosine-protein kinase FLT3 (Homo sapiens), P36888 [D835H]; test: Inhibition of FLT3 D835H mutant at 10 uM; conditions: values are per cent of control
[15] = tested on: Receptor-type tyrosine-protein kinase FLT3 (Homo sapiens), P36888 [N841I]; test: Inhibition of FLT3 N841I mutant at 10 uM; conditions: values are per cent of control
[16] = tested on: eIF-2-alpha kinase GCN2 (Homo sapiens), Q9P2K8 [S808G]; test: Inhibition of GCN2 Domain2 S808G mutant at 10 uM; conditions: values are per cent of control
[17] = molecular target: G protein-coupled receptor kinase 4 (Homo sapiens) (UniProt P32298); test: Inhibition of GRK4 at 10 uM; conditions: values are per cent of control
[18] = molecular target: Homeodomain-interacting protein kinase 3 (Homo sapiens) (UniProt Q9H422); test: Inhibition of HIPK3 at 10 uM; conditions: values are per cent of control
[19] = molecular target: Serine/threonine-protein kinase ICK (Homo sapiens) (UniProt Q9UPZ9); test: Inhibition of ICK at 10 uM; conditions: values are per cent of control
[20] = molecular target: Insulin receptor (Homo sapiens) (UniProt P06213); test: Inhibition of INSR at 10 uM; conditions: values are per cent of control
[21] = tested on: Mast/stem cell growth factor receptor Kit (Homo sapiens), P10721 [V559D,V654A]; test: Inhibition of KIT V559D, V654A mutant at 10 uM; conditions: values are per cent of control
[22] = molecular target: Serine/threonine-protein kinase MAK (Homo sapiens) (UniProt P20794); test: Inhibition of MAK at 10 uM; conditions: values are per cent of control
[23] = molecular target: Mitogen-activated protein kinase kinase kinase kinase 4 (Homo sapiens) (UniProt O95819); test: Inhibition of MAP4K4 at 10 uM; conditions: values are per cent of control
[24] = molecular target: Serine/threonine-protein kinase 38-like (Homo sapiens) (UniProt Q9Y2H1); test: Inhibition of NDR2 at 10 uM
[25] = molecular target: Serine/threonine-protein kinase NLK (Homo sapiens) (UniProt Q9UBE8); test: Inhibition of NLK at 10 uM
[26] = molecular target: Serine/threonine-protein kinase PAK 6 (Homo sapiens) (UniProt Q9NQU5); test: Inhibition of PAK6 at 10 uM
[27] = molecular target: Non-receptor tyrosine-protein kinase TYK2 (Homo sapiens) (UniProt P29597); test: Inhibition of TYK2 JH1 catalytic domain at 10 uM; conditions: values are per cent of control
[28] = molecular target: Tyrosine-protein kinase receptor TYRO3 (Homo sapiens) (UniProt Q06418); test: Inhibition of TYRO3 at 10 uM; conditions: values are per cent of control
[29] = molecular target: Vascular endothelial growth factor receptor 2 (Homo sapiens) (UniProt P35968); test: Inhibition of VEGFR2 at 10 uM; conditions: values are per cent of control
[30] = molecular target: Wee1-like protein kinase (Homo sapiens) (UniProt P30291); test: Inhibition of WEE1 at 10 uM; conditions: values are per cent of control
[31] = molecular target: Phosphatidylinositol 4-kinase beta (Homo sapiens) (UniProt Q9UBF8); test: Inhibition of PIK4CB at 10 uM
[32] = molecular target: RAF proto-oncogene serine/threonine-protein kinase (Homo sapiens) (UniProt P04049); test: Inhibition of RAF1 at 10 uM; conditions: values are per cent of control
[33] = molecular target: Ribosomal protein S6 kinase alpha-2 (Homo sapiens) (UniProt Q15349); test: Inhibition of RSK3 C-terminal domain2 at 10 uM
[34] = molecular target: Uncharacterized serine/threonine-protein kinase SBK3 (Homo sapiens) (UniProt P0C264); test: Inhibition of SgK110 at 10 uM
[35] = molecular target: Vascular endothelial growth factor receptor 1 (Homo sapiens) (UniProt P17948); test: Inhibition of FLT1 at 10 uM; values are per cent of control
[36] = molecular target: Serine/threonine-protein kinase PAK 3 (Homo sapiens) (UniProt O75914); test: Inhibition of PAK3 at 10 uM; values are per cent of control
[37] = molecular target: Serine/threonine-protein kinase Chk2 (Homo sapiens) (UniProt O96017); test: Inhibition of CHEK2 at 10 uM; values are per cent of control
[38] = molecular target: Cyclin-dependent kinase 13 (Homo sapiens) (UniProt Q14004); test: Inhibition of CDC2L5 at 10 uM; values are per cent of control
[39] = molecular target: Phosphatidylinositol 4,5-bisphosphate 3-kinase catalytic subunit alpha isoform (Homo sapiens) (UniProt P42336); test: Inhibition of PIK3CA at 10 uM; values are per cent of control
[40] = tested on: Proto-oncogene tyrosine-protein kinase receptor Ret (Homo sapiens), P07949 [V804L]; test: Inhibition of RET V804L mutant at 10 uM; values are per cent of control
[41] = tested on: Epidermal growth factor receptor (Homo sapiens), P00533 [L861Q]; test: Inhibition of EGFR L861Q mutant at 10 uM; values are per cent of control
[42] = molecular target: Tyrosine-protein kinase JAK1 (Homo sapiens) (UniProt P23458); test: Inhibition of JAK1 JH1 catalytic domain at 10 uM; values are per cent of control

Chain of Serine/threonine-protein kinase B-raf (Homo sapiens) (P15056 whole entry): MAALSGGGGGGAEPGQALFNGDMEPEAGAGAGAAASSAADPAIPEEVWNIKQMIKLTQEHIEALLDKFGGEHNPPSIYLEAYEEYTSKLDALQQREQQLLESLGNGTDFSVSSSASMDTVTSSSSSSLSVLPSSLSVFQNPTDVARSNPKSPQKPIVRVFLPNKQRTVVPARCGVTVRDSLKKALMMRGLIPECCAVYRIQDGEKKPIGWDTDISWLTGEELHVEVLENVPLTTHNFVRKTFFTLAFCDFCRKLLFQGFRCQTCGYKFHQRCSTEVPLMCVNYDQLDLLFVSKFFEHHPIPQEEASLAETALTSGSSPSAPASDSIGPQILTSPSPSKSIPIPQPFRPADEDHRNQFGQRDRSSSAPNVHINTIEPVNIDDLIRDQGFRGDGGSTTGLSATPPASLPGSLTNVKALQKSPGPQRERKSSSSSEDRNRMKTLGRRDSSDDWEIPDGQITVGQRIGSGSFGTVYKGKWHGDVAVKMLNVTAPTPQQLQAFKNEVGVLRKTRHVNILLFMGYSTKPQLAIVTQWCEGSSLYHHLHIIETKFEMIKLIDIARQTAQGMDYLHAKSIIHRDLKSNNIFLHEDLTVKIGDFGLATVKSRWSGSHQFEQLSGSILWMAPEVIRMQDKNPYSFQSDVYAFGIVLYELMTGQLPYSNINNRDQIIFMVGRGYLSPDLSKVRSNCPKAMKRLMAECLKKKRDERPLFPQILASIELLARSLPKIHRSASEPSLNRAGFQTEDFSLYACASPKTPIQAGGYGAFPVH
Chain of G protein-coupled receptor kinase 4 (Homo sapiens) (P32298 whole entry, looked up): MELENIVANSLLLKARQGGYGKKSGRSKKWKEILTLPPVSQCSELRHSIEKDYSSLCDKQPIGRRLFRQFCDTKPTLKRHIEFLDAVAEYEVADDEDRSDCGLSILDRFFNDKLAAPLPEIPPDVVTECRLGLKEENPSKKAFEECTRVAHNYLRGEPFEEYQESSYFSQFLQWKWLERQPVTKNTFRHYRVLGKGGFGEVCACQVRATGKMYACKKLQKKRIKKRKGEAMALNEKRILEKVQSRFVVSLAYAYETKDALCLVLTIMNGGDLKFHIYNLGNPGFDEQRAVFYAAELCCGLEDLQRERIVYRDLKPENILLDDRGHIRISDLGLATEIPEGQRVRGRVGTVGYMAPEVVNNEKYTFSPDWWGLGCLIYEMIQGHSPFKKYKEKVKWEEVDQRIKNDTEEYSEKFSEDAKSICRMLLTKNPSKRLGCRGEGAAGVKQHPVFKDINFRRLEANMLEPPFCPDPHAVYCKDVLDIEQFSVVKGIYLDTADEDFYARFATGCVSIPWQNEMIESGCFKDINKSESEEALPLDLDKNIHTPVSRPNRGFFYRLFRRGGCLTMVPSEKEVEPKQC
Chain of Serine/threonine-protein kinase ICK (Homo sapiens) (Q9UPZ9 whole entry): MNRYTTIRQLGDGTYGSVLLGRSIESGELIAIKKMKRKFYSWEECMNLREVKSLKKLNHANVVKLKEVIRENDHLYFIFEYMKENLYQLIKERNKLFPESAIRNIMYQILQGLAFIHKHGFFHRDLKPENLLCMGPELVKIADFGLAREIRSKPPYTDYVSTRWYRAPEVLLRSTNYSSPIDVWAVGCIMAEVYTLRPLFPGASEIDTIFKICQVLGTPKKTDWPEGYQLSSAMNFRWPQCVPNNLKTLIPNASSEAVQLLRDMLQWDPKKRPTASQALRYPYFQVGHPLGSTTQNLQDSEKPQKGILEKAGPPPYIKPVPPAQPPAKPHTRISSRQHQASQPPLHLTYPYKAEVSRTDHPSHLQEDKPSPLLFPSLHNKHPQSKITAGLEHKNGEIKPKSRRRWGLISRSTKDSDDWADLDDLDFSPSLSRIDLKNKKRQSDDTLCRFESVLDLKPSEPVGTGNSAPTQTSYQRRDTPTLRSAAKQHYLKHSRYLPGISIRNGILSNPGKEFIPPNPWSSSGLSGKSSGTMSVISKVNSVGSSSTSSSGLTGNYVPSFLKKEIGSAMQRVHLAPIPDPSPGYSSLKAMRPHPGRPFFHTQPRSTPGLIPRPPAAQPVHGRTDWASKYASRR
Chain of Phosphatidylinositol 4-kinase beta (Homo sapiens) (Q9UBF8 2-816 limits assumed): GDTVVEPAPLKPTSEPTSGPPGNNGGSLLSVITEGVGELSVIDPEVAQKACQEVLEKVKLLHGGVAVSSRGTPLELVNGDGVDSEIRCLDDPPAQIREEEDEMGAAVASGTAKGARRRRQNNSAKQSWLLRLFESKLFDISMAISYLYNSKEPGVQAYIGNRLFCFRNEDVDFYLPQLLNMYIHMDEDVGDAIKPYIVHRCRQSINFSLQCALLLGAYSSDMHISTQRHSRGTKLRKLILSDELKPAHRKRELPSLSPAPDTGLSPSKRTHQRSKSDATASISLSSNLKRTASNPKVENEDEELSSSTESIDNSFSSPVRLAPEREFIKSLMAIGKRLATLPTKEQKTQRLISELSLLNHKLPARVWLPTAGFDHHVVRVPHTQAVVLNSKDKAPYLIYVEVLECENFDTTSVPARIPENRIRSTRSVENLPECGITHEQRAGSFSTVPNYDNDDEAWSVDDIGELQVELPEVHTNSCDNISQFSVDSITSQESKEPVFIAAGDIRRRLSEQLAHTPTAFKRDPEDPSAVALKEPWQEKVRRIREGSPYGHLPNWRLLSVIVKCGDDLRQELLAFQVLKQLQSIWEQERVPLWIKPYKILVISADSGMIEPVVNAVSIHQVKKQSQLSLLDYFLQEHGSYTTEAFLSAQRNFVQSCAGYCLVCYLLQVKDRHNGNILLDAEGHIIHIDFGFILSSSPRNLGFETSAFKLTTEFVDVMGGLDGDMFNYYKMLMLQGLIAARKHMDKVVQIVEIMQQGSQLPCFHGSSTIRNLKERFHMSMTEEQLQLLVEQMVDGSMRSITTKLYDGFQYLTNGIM
Chain of Ribosomal protein S6 kinase alpha-2 (Homo sapiens) (Q15349 whole entry, the tested form may be a part): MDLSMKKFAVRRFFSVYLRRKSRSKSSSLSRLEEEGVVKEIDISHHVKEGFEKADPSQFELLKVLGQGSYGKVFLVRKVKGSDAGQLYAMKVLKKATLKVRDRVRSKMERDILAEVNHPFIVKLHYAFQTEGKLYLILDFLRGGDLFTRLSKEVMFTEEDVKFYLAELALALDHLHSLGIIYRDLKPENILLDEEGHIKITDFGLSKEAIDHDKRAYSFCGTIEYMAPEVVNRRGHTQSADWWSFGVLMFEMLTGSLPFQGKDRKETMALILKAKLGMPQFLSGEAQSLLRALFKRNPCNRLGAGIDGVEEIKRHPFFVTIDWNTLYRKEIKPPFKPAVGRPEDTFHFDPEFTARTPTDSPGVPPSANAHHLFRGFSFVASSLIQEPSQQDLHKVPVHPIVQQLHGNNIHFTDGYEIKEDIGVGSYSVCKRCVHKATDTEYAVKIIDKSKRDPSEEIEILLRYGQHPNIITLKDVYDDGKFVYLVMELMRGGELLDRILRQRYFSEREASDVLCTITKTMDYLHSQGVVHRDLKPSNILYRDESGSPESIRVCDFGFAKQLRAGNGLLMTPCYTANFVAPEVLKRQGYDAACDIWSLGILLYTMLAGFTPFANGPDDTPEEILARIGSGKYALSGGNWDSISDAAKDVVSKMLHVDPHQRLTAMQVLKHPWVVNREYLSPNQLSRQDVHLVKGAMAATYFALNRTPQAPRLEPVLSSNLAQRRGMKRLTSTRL
Chain of Dual specificity tyrosine-phosphorylation-regulated kinase 2 (Homo sapiens) (Q92630 whole entry): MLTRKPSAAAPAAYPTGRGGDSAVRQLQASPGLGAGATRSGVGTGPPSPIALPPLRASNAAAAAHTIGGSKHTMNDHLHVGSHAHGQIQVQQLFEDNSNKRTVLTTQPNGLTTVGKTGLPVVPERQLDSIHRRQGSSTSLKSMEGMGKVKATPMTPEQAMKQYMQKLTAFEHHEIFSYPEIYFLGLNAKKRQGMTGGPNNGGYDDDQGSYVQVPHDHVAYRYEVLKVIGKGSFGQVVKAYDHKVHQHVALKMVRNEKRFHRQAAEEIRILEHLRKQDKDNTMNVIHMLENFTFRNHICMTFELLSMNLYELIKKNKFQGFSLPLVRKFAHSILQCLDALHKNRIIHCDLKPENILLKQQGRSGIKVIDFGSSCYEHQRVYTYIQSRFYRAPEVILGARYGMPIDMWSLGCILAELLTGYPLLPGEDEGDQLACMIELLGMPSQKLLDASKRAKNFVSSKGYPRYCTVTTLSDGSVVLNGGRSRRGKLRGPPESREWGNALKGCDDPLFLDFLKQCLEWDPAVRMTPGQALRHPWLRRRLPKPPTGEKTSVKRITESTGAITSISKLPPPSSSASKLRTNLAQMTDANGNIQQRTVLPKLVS
Chain of Serine/threonine-protein kinase MAK (Homo sapiens) (P20794 whole entry): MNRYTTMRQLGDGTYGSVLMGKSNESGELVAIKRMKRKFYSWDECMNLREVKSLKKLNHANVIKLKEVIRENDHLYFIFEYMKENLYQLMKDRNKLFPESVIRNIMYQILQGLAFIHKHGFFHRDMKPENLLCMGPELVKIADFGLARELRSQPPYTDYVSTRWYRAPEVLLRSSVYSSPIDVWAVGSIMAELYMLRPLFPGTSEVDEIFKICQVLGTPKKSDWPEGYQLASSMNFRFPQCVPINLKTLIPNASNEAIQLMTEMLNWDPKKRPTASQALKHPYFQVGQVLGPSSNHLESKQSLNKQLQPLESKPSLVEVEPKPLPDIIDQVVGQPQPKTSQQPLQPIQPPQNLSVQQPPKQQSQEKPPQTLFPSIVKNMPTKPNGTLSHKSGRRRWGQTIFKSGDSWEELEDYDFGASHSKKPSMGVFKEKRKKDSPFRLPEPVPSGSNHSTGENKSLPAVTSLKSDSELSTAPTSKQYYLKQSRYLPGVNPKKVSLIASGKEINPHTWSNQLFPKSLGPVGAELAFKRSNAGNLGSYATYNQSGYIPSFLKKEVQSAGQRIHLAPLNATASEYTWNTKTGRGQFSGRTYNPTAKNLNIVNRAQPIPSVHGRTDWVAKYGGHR

CCN1CCN(Cc2ccc(NC(=O)c3ccc(C)c(C#Cc4cccnc4)c3)cc2C(F)(F)F)CC1
residual binding, % of control [1]: 100% | residual binding, % of control [2]: 81% | residual binding, % of control [3]: 78% | residual binding, % of control [4]: 2.7% | residual binding, % of control [5]: 0.05% | residual binding, % of control [6]: 2.8% | residual binding, % of control [7]: 100% | residual binding, % of control [8]: 53% | residual binding, % of control [9]: 7.8% | residual binding, % of control [10]: 3.9% | residual binding, % of control [11]: 94% | residual binding, % of control [12]: 65% | residual binding, % of control [13]: 48% | residual binding, % of control [14]: 0.15% | residual binding, % of control [15]: 0% | residual binding, % of control [16]: 1.3% | residual binding, % of control [17]: 47% | residual binding, % of control [18]: 18% | residual binding, % of control [19]: 80% | residual binding, % of control [20]: 58% | residual binding, % of control [21]: 4.2% | residual binding, % of control [22]: 9% | residual binding, % of control [23]: 3.3% | inhibition [24]: 8.7% | inhibition [25]: 8.2% | inhibition [26]: 100% | residual binding, % of control [27]: 4.2% | residual binding, % of control [28]: 100% | residual binding, % of control [29]: 0.25% | residual binding, % of control [30]: 100% | inhibition [31]: 100% | residual binding, % of control [32]: 0.5% | inhibition [33]: 30% | inhibition [34]: 100% | level, % of control [35]: 0.5% | % of control [36]: 3.3% | level, % of control [37]: 40% | level, % of control [38]: 6.5% | level, % of control [39]: 100% | level, % of control [40]: 0% | level, % of control [41]: 0.2% | level, % of control [42]: 6.2%

CCN1CCN(Cc2ccc(NC(=O)c3ccc(C)c(C#Cc4cnc5[nH]ccc5c4)c3)cc2C(F)(F)F)CC1
residual binding, % of control [1]: 97% | residual binding, % of control [2]: 53% | residual binding, % of control [3]: 72% | residual binding, % of control [4]: 2.6% | residual binding, % of control [5]: 0.45% | residual binding, % of control [6]: 2.5% | residual binding, % of control [7]: 100% | residual binding, % of control [8]: 69% | residual binding, % of control [9]: 27% | residual binding, % of control [10]: 6.8% | residual binding, % of control [11]: 78% | residual binding, % of control [12]: 30% | residual binding, % of control [13]: 51% | residual binding, % of control [14]: 0.35% | residual binding, % of control [15]: 0% | residual binding, % of control [16]: 0.25% | residual binding, % of control [17]: 14% | residual binding, % of control [18]: 25% | residual binding, % of control [19]: 96% | residual binding, % of control [20]: 53% | residual binding, % of control [21]: 1.4% | residual binding, % of control [22]: 61% | residual binding, % of control [23]: 1.8% | inhibition [24]: 11% | inhibition [25]: 13% | inhibition [26]: 85% | residual binding, % of control [27]: 6.8% | residual binding, % of control [28]: 38% | residual binding, % of control [29]: 0.35% | residual binding, % of control [30]: 100% | inhibition [31]: 100% | residual binding, % of control [32]: 0.95% | inhibition [33]: 87% | inhibition [34]: 42% | level, % of control [35]: 0.8% | % of control [36]: 1.1% | level, % of control [37]: 22% | level, % of control [38]: 13% | level, % of control [39]: 93% | level, % of control [40]: 0% | level, % of control [41]: 0% | level, % of control [42]: 2.9%
